The record followed here is ChEMBL document CHEMBL4616708, “Antitumor Potential of the Isoflavonoids (+)- and (-)-2,3,9-Trimethoxypterocarpan: Mechanism-of-Action Studies” (ACS Med Chem Lett, 2020).

Activity calls are given as the source filed them. The calls are words filed in the database; no cut-off is given here.

Data set [1] deals with OVCAR-8. Briefly: Cell cycle arrest in human OVCAR8 cells assessed as accumulation at S phase at 10 uM incubated for 24 hrs by propidium iodide staining based flow cytometry (reference value: 7.1 +/- 0.86%). Type of data set: functional. A general note: In flow cytometry, cells or beads pass a laser one at a time.
Data set [2] relates to OVCAR-8. As to the kind of experiment: Cytotoxicity against human OVCAR8 cells assessed as reduction in cell viability at 1 to 4 uM measured upto 98 hrs by xcCELLigence RTCA analysis. The format is functional, cell-based.
The subject of data set [3] is OVCAR-8. Briefly: Cell cycle arrest in human OVCAR8 cells assessed as accumulation at G2/M phase at 10 uM incubated for 24 hrs by propidium iodide staining based flow cytometry (reference value: 25.78 +/- 0.71%). The format is functional.
The subject of data set [4] is OVCAR-8. Briefly: Cell cycle arrest in human OVCAR8 cells assessed as accumulation at G0/G1 phase at 10 uM incubated for 24 hrs by propidium iodide staining based flow cytometry (reference value: 67.06 +/- 1.42%). The format is functional.
Data set [5] deals with OVCAR-8. As to the kind of experiment: Cell cycle arrest in human OVCAR8 cells assessed as accumulation at G2/M phase at 5 uM incubated for 24 hrs by propidium iodide staining based flow cytometry (reference value: 25.78 +/- 0.71%). The format is functional.
In a further data set the test system is HCT-116. Briefly: Cytotoxicity against human HCT116 cells assessed as reduction in cell viability incubated for 72 hrs by MTT assay. To be noted: HCT-116, 72 h. The format is functional, cell-based. For orientation: Tetrazolium dyes change colour on reduction, which living cells bring about.
The test system of another data set is HL-60. Briefly: Cytotoxicity against human HL60 cells assessed as reduction in cell viability incubated for 72 hrs by MTT assay. The format is functional, cell-based. The following applies: HL-60, 72 h.
The next data set concerns SF-295. Briefly: Cytotoxicity against human SF295 cells assessed as reduction in cell viability incubated for 72 hrs by MTT assay. The format is functional, cell-based. The following applies: SF-295, 72 h.
Data set [6] has as its system OVCAR-8. Briefly: Cell cycle arrest in human OVCAR8 cells assessed as accumulation at S phase at 5 uM incubated for 24 hrs by propidium iodide staining based flow cytometry (reference value: 7.1 +/- 0.86%). The format is functional.
The subject of data set [7] is OVCAR-8. As to the kind of experiment: Cytotoxicity against human OVCAR8 cells assessed as reduction in cell viability incubated for 72 hrs by MTT assay. The format is functional, cell-based. To be noted: OVCAR-8, 72 h.
Data set [8] has as its system OVCAR-8. Briefly: Cell cycle arrest in human OVCAR8 cells assessed as accumulation at G0/G1 phase at 5 uM incubated for 24 hrs by propidium iodide staining based flow cytometry (reference value: 67.06 +/- 1.42%). Type of data set: functional.
For data set [9], the system named is Lytechinus variegatus. As to the kind of experiment: Antimitotic activity against sea urchin eggs assessed as inhibition of egg development at first cleavage. The format is functional, organism-based.
Data set [10] is described as follows: Cytotoxicity against human PBMC assessed as cell viability at 10 ug/ml incubated for 72 hrs by trypan blue dye based assay. The following applies: read-out: Activity.
Data set [11] relates to OVCAR-8. Briefly: Induction of apoptosis in human OVCAR8 cells assessed as reduction in cell viability incubated for 48 hrs by acridine orange and ethidium bromide dye based fluorescence microscopy analysis. The format is functional.
The test system of data set [12] is OVCAR-8. As to the kind of experiment: Cell cycle arrest in human OVCAR8 cells assessed as accumulation at G0/G1 phase at 2.5 uM in presence of PTX incubated for 24 hrs by propidium iodide staining based flow cytometry (reference value: 67.06 +/- 1.42%). Type of data set: functional.
The subject of data set [13] is OVCAR-8. Briefly: Cytotoxicity against human OVCAR8 cells assessed as reduction in cell viability measured upto 98 hrs by xcCELLigence RTCA analysis. The format is functional, cell-based.
Data set [14] deals with Lytechinus variegatus. Briefly: Antimitotic activity against sea urchin eggs assessed as inhibition of egg development at blastulation stage. The format is functional, organism-based.
Data set [15] concerns OVCAR-8. Briefly: Cell cycle arrest in human OVCAR8 cells assessed as accumulation at G0/G1 phase at 2.5 uM incubated for 24 hrs by propidium iodide staining based flow cytometry (reference value: 67.06 +/- 1.42%). The format is functional.
For data set [16], the system named is OVCAR-8. As to the kind of experiment: Cell cycle arrest in human OVCAR8 cells assessed as accumulation at S phase at 2.5 uM incubated for 24 hrs by propidium iodide staining based flow cytometry (reference value: 7.1 +/- 0.86%). The format is functional.
Data set [17] deals with Lytechinus variegatus. Briefly: Antimitotic activity against sea urchin eggs assessed as inhibition of development at second cleavage. The format is functional, organism-based.
The test system of data set [18] is OVCAR-8. As to the kind of experiment: Cell cycle arrest in human OVCAR8 cells assessed as accumulation at G2/M phase at 2.5 uM incubated for 24 hrs by propidium iodide staining based flow cytometry (reference value: 25.78 +/- 0.71%). Type of data set: functional.
The test system of data set [19] is OVCAR-8. As to the kind of experiment: Induction of apoptosis in human OVCAR8 cells assessed as chromatin condensation at 20 to 40 uM incubated for 48 hrs by hematoxylin and eosin staining based […] analysis. Type of data set: functional, cell-based.
Data set [20] deals with OVCAR-8. As to the kind of experiment: Cell cycle arrest in human OVCAR8 cells assessed as accumulation at S phase at 2.5 uM in presence of PTX incubated for 24 hrs by propidium iodide staining based flow cytometry (reference value: 7.1 +/- 0.86%). Type of data set: functional.
The test system of data set [21] is OVCAR-8. As to the kind of experiment: Cell cycle arrest in human OVCAR8 cells assessed as accumulation at G2/M phase at 2.5 uM in presence of PTX incubated for 24 hrs by propidium iodide staining based flow cytometry (reference value: 25.78 +/- 0.71%). Type of data set: functional.
Another data set concerns MCF7. Briefly: Cell cycle arrest in human MCF7 cells assessed as increase in accumulation at G2/M phase at 8 uM incubated for 24 hrs by propidium iodide staining based flow cytometry relative to control. The format is functional.
The test system of data set [22] is OVCAR-8. As to the kind of experiment: Induction of apoptosis in human OVCAR8 cells assessed as increase in apoptotic cells incubated for 48 hrs by acridine orange and ethidium bromide dye based fluorescence microscopy analysis. The format is functional, cell-based.
Data set [23] has as its system OVCAR-8. Briefly: Induction of apoptosis in human OVCAR8 cells assessed as reduction in cell viability at 0.6 uM incubated for 48 hrs by acridine orange and ethidium bromide dye based fluorescence microscopy analysis. The format is functional.
Data set [24] concerns OVCAR-8. As to the kind of experiment: Induction of apoptosis in human OVCAR8 cells assessed as increase in apoptotic cells at 0.6 uM incubated for 48 hrs by acridine orange and ethidium bromide dye based fluorescence microscopy analysis. Type of data set: functional, cell-based.
In data set [25] the test system is OVCAR-8. Briefly: Induction of apoptosis in human OVCAR8 cells assessed as reduction in cell volume at 0.03 uM incubated for 48 hrs by hematoxylin and eosin staining based […] analysis. Type of data set: functional.
Data set [26] concerns OVCAR-8. As to the kind of experiment: Induction of apoptosis in human OVCAR8 cells assessed as reduction in cell viability at 0.03 uM incubated for 48 hrs by acridine orange and ethidium bromide dye based fluorescence microscopy analysis. The format is functional.
The test system of data set [27] is OVCAR-8. Briefly: Cytotoxicity against human OVCAR8 cells assessed as reduction in cell viability at 0.05 uM measured upto 98 hrs by xcCELLigence RTCA analysis. The format is functional, cell-based.
The test system of data set [28] is OVCAR-8. Briefly: Cell cycle arrest in human OVCAR8 cells assessed as accumulation at G0/G1 phase at 0.05 uM incubated for 24 hrs by propidium iodide staining based flow cytometry (reference value: 67.06 +/- 1.42%). The format is functional.
Data set [29] relates to OVCAR-8. As to the kind of experiment: Induction of apoptosis in human OVCAR8 cells assessed as increase in apoptotic cells at 0.03 uM incubated for 48 hrs by acridine orange and ethidium bromide dye based fluorescence microscopy analysis. Type of data set: functional, cell-based.
Data set [30] relates to OVCAR-8. As to the kind of experiment: Cell cycle arrest in human OVCAR8 cells assessed as accumulation at G2/M phase at 0.05 uM incubated for 24 hrs by propidium iodide staining based flow cytometry (reference value: 25.78 +/- 0.71%). The format is functional.
Data set [31] relates to OVCAR-8. Briefly: Induction of apoptosis in human OVCAR8 cells assessed as nuclear fragmentation at 0.03 uM incubated for 48 hrs by hematoxylin and eosin staining based […] analysis. Type of data set: functional, cell-based.
The subject of data set [32] is OVCAR-8. Briefly: Induction of apoptosis in human OVCAR8 cells assessed as chromatin condensation at 0.03 uM incubated for 48 hrs by hematoxylin and eosin staining based […] analysis. Type of data set: functional, cell-based.
The subject of data set [33] is OVCAR-8. Briefly: Cell cycle arrest in human OVCAR8 cells assessed as accumulation at S phase at 0.05 uM incubated for 24 hrs by propidium iodide staining based flow cytometry (reference value: 7.1 +/- 0.86%). The format is functional.

With `COc1ccc2c(c1)OC1c3cc(OC)c(OC)cc3OCC21` (racemic), the Activity with OVCAR-8 [1] amounted to 10.93%; with OVCAR-8 [3], 42.06%; with OVCAR-8 [4], 46.72%; with OVCAR-8 [5], 37.16%; in the data set on OVCAR-8 [6], 10.02%; in the data set on OVCAR-8 [8] it was 52.61%. Further, the outcome in the data set on OVCAR-8 [2] was inactive. Moreover, the IC50 worked out at 11.4 µM in the data set on HCT-116, 0.76 µM with HL-60, 14 µM in the data set on SF-295 and 5.93 µM in the data set on OVCAR-8 [7].
As to `COc1ccc2c(c1)O[C@@H]1c3cc(OC)c(OC)cc3OC[C@H]21`, the Activity with OVCAR-8 [1] is 9.92%; in the data set with OVCAR-8 [11] it was “Dose-dependent effect”; in the data set on OVCAR-8 [12], 10.98%; in the data set with OVCAR-8 [13], “Dose-dependent effect”; in the data set on OVCAR-8 [3], 79.13%; in the data set with OVCAR-8 [4], 10.84%. Besides, the Activity in the data set on OVCAR-8 [5] stood at 75.24%; with OVCAR-8 [15], 58.16%; in the data set on OVCAR-8 [16], 9.1%; with OVCAR-8 [18], 32.71%; with OVCAR-8 [20] it was 10.39%; in the data set with OVCAR-8 [21] it was 78.62%. In addition, the Activity in the data set on OVCAR-8 [6] is 8.76%; with OVCAR-8 [8] it was 15.83%; with MCF7 it was 32%; in the data set on OVCAR-8 [22], “Dose-dependent effect”. In addition, the half-maximal inhibitory concentration (IC50) was 0.00794 µM in the data set with Lytechinus variegatus [9]; 0.0107 µM in the data set on Lytechinus variegatus [14]; 2.42 µM with HCT-116; 0.2 µM with HL-60; 0.0123 µM in the data set with Lytechinus variegatus [17]; 3.61 µM in the data set on SF-295. Besides, in the data set with OVCAR-8 [7], the IC50 stood at 1.79 µM. Moreover, the viability at 72 h, 10 ug/ml in data set [10] turned out to be 81%. The outcome in the data set with OVCAR-8 [19] was Active.
`COc1cccc2c1C(=O)c1c(O)c3c(c(O)c1C2=O)C[C@@](O)(C(=O)CO)C[C@@H]3O[C@H]1C[C@H](N)[C@H](O)[C@H](C)O1` [DOXORUBICIN]: the result in the data set on OVCAR-8 [23] and in the data set on OVCAR-8 [24] was Active. The figures for the IC50 in the data set on HL-60 and in the data set on SF-295 were 0.04 µM and 0.08 µM, respectively.
In the case of `CC(=O)O[C@H]1C(=O)[C@@]2(C)[C@H]([C@H](OC(=O)c3ccccc3)[C@]3(O)C[C@H](OC(=O)[C@H](O)[C@@H](NC(=O)c4ccccc4)c4ccccc4)C(C)=C1C3(C)C)[C@]1(OC(C)=O)CO[C@@H]1C[C@@H]2O` [PACLITAXEL], the result in the data set on OVCAR-8 [25], in the data set on OVCAR-8 [26], in the data set on OVCAR-8 [27], with OVCAR-8 [29], in the data set with OVCAR-8 [31] and in the data set with OVCAR-8 [32] was Active. The Activity with OVCAR-8 [28] was 34.28%; in the data set with OVCAR-8 [30], 49.97%; in the data set on OVCAR-8 [33] it was 15.72%.
On to `COc1ccc2c(c1)O[C@H]1c3cc(OC)c(OC)cc3OC[C@@H]21`, for which the IC50 with HCT-116 turned out to be 38.5 µM; in the data set on HL-60 it was 82.8 µM; in the data set on SF-295, 32.8 µM; with OVCAR-8 [7], 82.8 µM.

A word on the IC50: it is the concentration that inhibits the measured activity by half.
